Source: ChEMBL document CHEMBL3137667, “[Drug-induced liver injury; fourteenth updated edition of the bibliographic database of liver injuries and related drugs]” (Gastroenterol Clin Biol, 2004)

Key:
[1] = human, serum, 4383 h
[2] = human
[3] = Highest frequency of acute liver toxicity observed during clinical trials, expressed as a percentage. [column '% AIGUE' in source]; details: human
[4] = Highest frequency of moderate liver toxicity observed during clinical trials, expressed as a percentage. [column '% BIOL' in source]; details: human
[5] = human; remark: listed apart in the source
[6] = human; remark: listed apart in the source
[7] = human; remark: listed apart in the source
[8] = human; remark: listed apart in the source
[9] = human; remark: listed apart in the source
[10] = human, serum
[11] = human; remark: listed apart in the source
[12] = human; remark: listed apart in the source
[13] = human, serum; remark: listed apart in the source
[14] = human; remark: listed apart in the source
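For Hepatotoxicity (association with vascular disease) in this document: count of indexed literature references reporting vascular liver injury in humans, e.g. peliosis hepatitis, hepatic veno-occlusive disease or Budd-Chiari syndrome.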
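For Hepatotoxicity (benign tumour) in this document: value is a count of indexed literature references citing a benign tumour confirmed by histopathology.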
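For Hepatotoxicity (choleostasis) in this document: human cholestatic liver injury, shown by histopathology or by peak ALT or AST elevation over alkaline phosphatase ratio below 2, value counts indexed literature reports.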
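For Hepatotoxicity (chronic liver disease) in this document: chronic liver injury confirmed by histopathology or persistently raised serum aminotransferase activity beyond 6 months, value given as the count of indexed literature references.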
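For Hepatotoxicity (cirrhosis) in this document: value is a count of indexed literature references reporting cirrhosis confirmed by histopathology.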
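For Hepatotoxicity (cytolytic) in this document: human cytolytic liver injury, shown by histopathology or by a ratio above 5 of peak ALT or AST elevation to alkaline phosphatase elevation, value counts indexed references.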
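For Hepatotoxicity (granulomatous hepatitis) in this document: value is a count of indexed literature references reporting granulomatous liver disease confirmed by histopathology.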
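For Hepatotoxicity (malignant tumour) in this document: malignant tumour confirmed by histopathology, value gives the count of indexed literature references reporting it.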
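For Hepatotoxicity (severe hepatitis) in this document: human clinical data: severe hepatitis, meaning potentially life-threatening liver failure or clinically observed cases, the value counts how many indexed literature references report it.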
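For Hepatotoxicity (steatosis) in this document: steatosis confirmed by histopathology, value is the count of indexed references.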

| Structure (SMILES) | Hepatotoxicity (chronic liver disease) [1] | Hepatotoxicity (association with vascular disease) [2] | Hepatotoxicity (acute) [3] | Hepatotoxicity (moderate) [4] | Hepatotoxicity (malignant tumour) [5] | Hepatotoxicity (cytolytic) [6] | Hepatotoxicity (benign tumour) [7] | Hepatotoxicity (steatosis) [8] | Hepatotoxicity (choleostasis) [9] | Hepatotoxicity (acute) [10] | Hepatotoxicity (granulomatous hepatitis) [11] | Hepatotoxicity (severe hepatitis) [12] | Hepatotoxicity (moderate) [13] | Hepatotoxicity (cirrhosis) [14] | Hepatotoxicity (acute) ([3]; Liver) | Hepatotoxicity (moderate) ([4]; Liver) | Hepatotoxicity (cytolytic) ([6]; Liver) | Hepatotoxicity (choleostasis) ([9]; Liver) | Hepatotoxicity (granulomatous hepatitis) ([11]; Liver) | Hepatotoxicity (severe hepatitis) ([12]; Liver) |
| --- | --- | --- | --- | --- | --- | --- | --- | --- | --- | --- | --- | --- | --- | --- | --- | --- | --- | --- | --- | --- |
| O=CN(O)CCCP(=O)(O)O [FOSMIDOMYCIN] | 0 | 0 | 0% | 7.7% | 0 | 0 | 0 | 0 | 0 | 0 | 0 | 0 | 1 | 0 | – | – | – | – | – | – |
| CCOP(=O)(OCC)C(C)NC(=O)N(CCCl)N=O (stereo not given) [FOTEMUSTINE] | 0 | 0 | 0% | 30.8% | 0 | 0 | 0 | 0 | 0 | 1 | 0 | 0 | 9 | 0 | – | – | – | – | – | – |
| CO[C@@H]1[C@H](OC(=O)/C=C/C=C/C=C/C=C/C(=O)O)CC[C@]2(CO2)[C@H]1[C@@]1(C)O[C@@H]1CC=C(C)C [FUMAGILLIN] | 0 | 0 | 3.4% | 16.7% | 0 | 1 | 0 | 0 | 0 | 1 | 0 | 0 | 2 | 0 | – | – | – | – | – | – |
| COc1ccc(CCN(C)CCCC(C#N)(c2cc(OC)c(OC)c(OC)c2)C(C)C)cc1OC (stereo not given) [GALLOPAMIL] | 0 | 0 | 0% | 4% | 0 | 0 | 0 | 0 | 0 | 0 | 0 | 0 | 1 | 0 | – | – | – | – | – | – |
| CC(C)=CCC/C(C)=C/CC/C(C)=C/CCC(=O)OC/C=C(\C)CCC=C(C)C [GEFARNATE] | 0 | 0 | 0% | 1% | 0 | 0 | 0 | 0 | 0 | 0 | 0 | 0 | 1 | 0 | – | – | – | – | – | – |
| C[C@H]([C@](O)(Cn1cncn1)c1ccc(F)cc1F)S(C)(=O)=O [GENACONAZOLE] | 0 | 0 | 0% | 33.3% | 0 | 0 | 0 | 0 | 0 | 0 | 0 | 0 | 1 | 0 | – | – | – | – | – | – |
| CC1(C)CC(=O)N(CCCCN2CCN(c3ncccn3)CC2)C(=O)C1 [GEPIRONE] | 0 | 0 | 0% | 3.3% | 0 | 0 | 0 | 0 | 0 | 0 | 0 | 0 | 1 | 0 | – | – | – | – | – | – |
| C#C[C@]1(O)CC[C@H]2[C@@H]3CCC4=CC(=O)CCC4=C3C=C[C@@]21CC [GESTRINONE] | 0 | 0 | 0% | 0.8% | 0 | 0 | 0 | 0 | 0 | 0 | 0 | 0 | 1 | 0 | – | – | – | – | – | – |
| Cc1cc(C(=O)NCCc2ccc(S(=O)(=O)NC(=O)NN3CCCCCC3)cc2)no1 [GLISOXEPIDE] | 0 | 0 | 0% | 0% | 0 | 0 | 0 | 0 | 0 | 0 | 0 | 0 | 1 | 0 | – | – | – | – | – | – |
| CC(C)C[C@H](NC(=O)[C@@H](COC(C)(C)C)NC(=O)[C@H](Cc1ccc(O)cc1)NC(=O)[C@H](CO)NC(=O)[C@H](Cc1c[nH]c2ccccc12)NC(=O)[C@H](Cc1cnc[nH]1)NC(=O)[C@@H]1CCC(=O)N1)C(=O)N[C@@H](CCCNC(=N)N)C(=O)N1CCC[C@H]1C(=O)NNC(N)=O [GOSERELIN] | 0 | 0 | 0% | 7.8% | 0 | 0 | 0 | 0 | 0 | 0 | 0 | 1 | 5 | 0 | – | – | – | – | – | – |
| Cc1cc2c(C(C)C)c(O)c(O)c(C=O)c2c(O)c1-c1c(C)cc2c(C(C)C)c(O)c(O)c(C=O)c2c1O [GOSSYPOL] | 0 | 0 | 0% | 93% | 0 | 0 | 0 | 0 | 0 | 0 | 0 | 0 | 1 | 0 | – | – | – | – | – | – |
| Cc1c(F)c(N2CCNC(C)C2)cc2c1c(=O)c(C(=O)O)cn2C1CC1 (stereo not given) [GREPAFLOXACIN] | 0 | 0 | – | – | 0 | – | 0 | 0 | – | 0 | – | – | 22 | 0 | 0% | 14.3% | 0 | 0 | 0 | 0 |
| CCCCN(CCCC)CCC(O)c1cc2c(Cl)cc(Cl)cc2c2cc(C(F)(F)F)ccc12 (stereo not given) [HALOFANTRINE] | 0 | 0 | 0% | 29% | 0 | 0 | 0 | 0 | 0 | 0 | 0 | 0 | 8 | 0 | – | – | – | – | – | – |
| CC(=O)NCCOC(=O)C(Oc1cccc(C(F)(F)F)c1)c1ccc(Cl)cc1 (stereo not given) [HALOFENATE] | 0 | 0 | 0% | 0% | 0 | 0 | 0 | 0 | 0 | 0 | 0 | 0 | 1 | 0 | – | – | – | – | – | – |
| O=C(NCCN1CCC(n2c(=O)[nH]c3cc(Cl)ccc32)CC1)c1ccc(F)cc1 [HALOPEMIDE] | 0 | 0 | 0% | 27% | 0 | 0 | 0 | 0 | 0 | 0 | 0 | 0 | 1 | 0 | – | – | – | – | – | – |
